Our source for the EC50 values is PubChem BioAssay AID743430 (The Scripps Research Institute Molecular Screening Center, 2014).

Usually EC50 stands for the concentration needed to bring the measured effect to its halfway point.

Activity calls are given as the source filed them. The rule behind the calls is not given here.

This assay has as its target Sphingosine 1-phosphate receptor 4 (Homo sapiens) (UniProt O95977). Put plainly: agonism at human S1PR4 – cell-based, FRET, dose response, counter-screen for S1PR3 antagonist project, late-stage follow-up (AID 743430). The note with it: S1P4-expressing cells, FRET reporter, agonist mode. (In general: The purpose of a counterscreen is to sort out artefacts and off-target activity.)

Sequence of Sphingosine 1-phosphate receptor 4 (Homo sapiens) (O95977 whole entry, looked up): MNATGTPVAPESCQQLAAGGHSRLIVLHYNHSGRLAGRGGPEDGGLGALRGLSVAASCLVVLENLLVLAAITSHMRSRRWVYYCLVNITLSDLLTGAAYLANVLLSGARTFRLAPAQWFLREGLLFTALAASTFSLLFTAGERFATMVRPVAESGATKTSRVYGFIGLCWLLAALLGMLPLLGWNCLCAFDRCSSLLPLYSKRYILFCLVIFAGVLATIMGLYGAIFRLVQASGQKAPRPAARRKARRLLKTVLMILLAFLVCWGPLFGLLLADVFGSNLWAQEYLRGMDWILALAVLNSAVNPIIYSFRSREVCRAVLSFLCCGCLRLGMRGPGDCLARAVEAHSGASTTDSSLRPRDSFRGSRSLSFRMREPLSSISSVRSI

As for `O=C(NC(c1nc(-c2ccccc2)no1)C1CCOCC1)c1ccc(Cl)c(Cl)c1` (configuration not stated), the EC50 was > 50 µM (inactive). As for `COc1ccc(C(=O)NC(c2ccccc2)c2nc(-c3ccccc3)no2)cc1` (configuration not stated), the EC50 is > 50 µM (inactive).

For the molecule `O=C(NC(c1ccccc1)c1nc(-c2ccccc2)no1)c1cccc(Cl)c1` (configuration not stated), the EC50 is > 50 µM (inactive). The value for `O=C(NC(c1ccc(Cl)cc1)c1nc(-c2ccccc2)no1)c1ccc(Cl)c(Cl)c1` (configuration not stated) was > 50 µM (inactive). The result for `Cc1ccc(C(=O)NC(c2ccccc2)c2nc(-c3ccccc3)no2)cc1` (configuration not stated) reads > 50 µM (inactive); that for `CCc1ccc(C(NC(=O)c2cccc(Cl)c2)c2nc(-c3ccccc3)no2)cc1` (configuration not stated), > 50 µM (inactive). Take `O=C(NC(c1ccc(Cl)cc1)c1nc(-c2ccccc2)no1)c1cccc(Cl)c1` (configuration not stated): the EC50 was > 50 µM (inactive). The value for `O=C(NC(c1ccc(Cl)cc1)c1nc(-c2ccccc2)no1)c1cccc(Br)c1` (configuration not stated) was > 50 µM (inactive); that for `O=C(NC(c1ccc(Cl)cc1)c1nc(-c2cccc(Cl)c2)no1)c1cccc(Cl)c1` (configuration not stated) was > 50 µM (inactive). `O=C(NC(c1cccc(Cl)c1)c1nc(-c2ccccc2)no1)c1ccc(Cl)c(Cl)c1` (configuration not stated): the EC50 is > 50 µM (inactive). As for `O=C(NC(c1cccc(Cl)c1)c1nc(-c2ccccc2)no1)c1cccc(Cl)c1` (configuration not stated), the EC50 was > 50 µM (inactive). Regarding `N#Cc1ccc(C(=O)NC(c2ccc(Cl)c(Cl)c2)c2nc(-c3ccccc3)no2)cc1` (configuration not stated), the EC50 is > 50 µM (inactive). The value for `O=C(NC(c1ccc(Cl)c(Cl)c1)c1nc(-c2ccccc2)no1)c1cccc(Cl)c1` (configuration not stated) was > 50 µM (inactive); that for `O=C(NC(c1cccc(Cl)c1)c1nc(-c2ccccc2)no1)c1cc(Cl)cc(Cl)c1` (configuration not stated) was > 50 µM (inactive); that for `O=C(NC(Cc1ccccc1)c1nc(-c2ccccc2)no1)c1cccc(Cl)c1` (configuration not stated) was > 50 µM (inactive). As to `O=C(NC(c1ccc(Cl)c(Cl)c1)c1nc(-c2ccccc2)no1)c1ccc(Cl)c(Cl)c1` (configuration not stated), the EC50 is > 50 µM (inactive). The value for `O=C(NC(c1ccccc1)c1nc(-c2ccccc2)no1)c1cccc(Br)c1` (configuration not stated) was “inactive”; that for `O=C(NC(c1ccccc1)c1nc(-c2ccccc2)no1)c1cccc(Cl)n1` (configuration not stated) was > 50 µM (inactive). Turning to `O=C(NC(c1ccc(Cl)cc1)c1nc(-c2ccccn2)no1)c1cccc(Cl)c1` (configuration not stated), the EC50 was > 50 µM (inactive).

With `O=C(c1cccc(Cl)c1)N(CCO)C(c1ccc(Cl)c(Cl)c1)c1nc(-c2ccccc2)no1` (configuration not stated), the EC50 was > 50 µM (inactive). The value for `O=C(NC(c1nc(-c2ccccc2)no1)C1CCCCC1)c1ccc(Cl)c(Cl)c1` (configuration not stated) was > 50 µM (inactive).

Take `Cc1ccc(C(NC(=O)c2cccc(Cl)c2)c2nc(-c3ccccc3)no2)cc1` (configuration not stated): the EC50 was > 50 µM (inactive).

With `O=C(NC(c1ccc(Cl)cc1)c1nc(-c2ccccc2)no1)c1ccc(Cl)c(Br)c1` (configuration not stated), the EC50 was > 50 µM (inactive). With `O=C(NC(c1ccccc1)c1nc(-c2ccccc2)no1)c1ccc(Cl)cc1` (configuration not stated), the EC50 was > 50 µM (inactive). As to `O=C(NC(c1ccc(Br)cc1)c1nc(-c2ccccc2)no1)c1ccc(Cl)c(Cl)c1` (configuration not stated), the EC50 was > 50 µM (inactive). Regarding `O=C(NC(c1ccc(Cl)c(Cl)c1)c1nc(-c2ccccc2)no1)c1ccccc1` (configuration not stated), the EC50 is > 50 µM (inactive).

As for `O=C(NC(c1ccc(Cl)c(Cl)c1)c1nc(-c2ccccc2)no1)c1ccc(Cl)cc1` (configuration not stated), the EC50 was > 50 µM (inactive).
